Source: US20020159981A1, “Methods of controlling proliferation and differentiation of stem and progenitor cells” (Gamida-Cell Ltd., priority 1999, published 2002)

Key:
[1] = test system: Cord blood-derived CD34 cells; assay: Long-term liquid culture of CD34 cells: proliferation, CFUc, differentiation status; format: cell-based, human; conditions: for cell proliferation and generation of CFUc in long-term cultures: long-term cultures (FIGS. 21, 22)
Description: (§1) Culture procedures: For the expansion of progenitor cells, CD34^+ enriched fractions or unseparated mononuclear cells were seeded at about 1-3×10^4 cells/ml in either alpha minimal essential medium containing 10% preselected fetal calf serum (FCS) (both from GIBCO, Grand Island, N.Y.), or serum-free medium (Progenitor-34 medium, Life Technologies, Grand Island, N.Y.). The media were supplemented with a mixture of growth factors and transition metal chelators. The cultures were incubated at 37° C. in an atmosphere of 5% CO2 in air with extra humidity. Half of the medium was changed weekly with fresh medium containing all the supplements.
(§2) Cloning potential evaluations: The cloning potential of cells developed in the liquid culture was assayed, at different intervals, in semi-solid medium. The cells were washed and seeded in 35 mm dishes in methylcellulose containing alpha medium supplemented with recombinant growth factors (SCF, G-CSF, GM-CSF and EPO). Following 2 weeks incubation, the cultures were scored with an inverted microscope. Colonies were classified as blast, mixed, erythroid, myeloid, and megakaryocytic, according to their cellular composition.
Morphological assessment: In order to characterize the resulting culture populations, aliquots of cells were deposited on a glass slide (cytocentrifuge, Shandon, Runcorn, UK), fixed and stained in May-Grunwald Giemsa. Other aliquots were stained by benzidine for intracellular hemoglobin.
TEPA effects on proliferation and clonability of long-term CD34^+ cultures: Long-term cultures were maintained for 3-5 weeks by weekly demi-depopulation (one half of the culture volume was removed and replaced by fresh medium and cytokines).
CD34^+ cells derived from human neonatal cord blood were purified by immunomagnetic method and then cultured in liquid medium supplemented with cytokines either with or without transition metal chelators. At weekly intervals, the cultures were demi-depopulated by removing half of the culture content (supernatant and cells) and replacing it with fresh medium, cytokines and the chelators. At the indicated weeks the cellular content of the cultures were quantified for total cells (by a manual microscopic/hemocytometric method), for CD34^+ cells (by immuno-flow cytometry) and for clonogenic cells (by cloning the cells in cytokine-supplemented semi-solid medium). The cultures were initiated with 1×10^4 cells, 50-80% of which were CD34^+ and 25-50% of which were CFUc. The results presented in FIGS. 11 to 24 were calculated per 1×10^4 initiating cells (the numbers were multiplied by the dilution factors).

[2] = test system: Cord blood-derived CD34 cells; assay: Short-term liquid culture of CD34 cells: cell number, CD34 cells, colony forming cells; format: cell-based, human; conditions: for reversal of TEPA activities by supplemented ions: TEPA-treated cultures, short to medium term (FIGS. 8, 9); for effects of transition metal chelators on CD34^+ cells: 10 μM, day 7 (FIG. 7)
Description: The interphase layer of mononuclear cells were collected, washed three times with Ca/Mg free phosphate buffered saline containing 1% bovine serum albumin (BSA). The cells were incubated for 30 min. at 4° C. with murine monoclonal anti CD34 antibody (0.5 μg/10^6 mononuclear cells) and thereafter isolated using the miniMACS apparatus (Miltenyi-Biotec, Bergisch, Gladbach, Germany) according to the manufacturer's protocol.
as §1, §2
Immunofluorescence staining: At different intervals, cells from the liquid cultures were assayed for CD34 antigen. Aliquots were harvested, washed and incubated on ice with FITC-labeled anti CD45 monoclonal antibody and either PE-labeled anti CD34 (HPCA-2) monoclonal antibody or PE-labeled control mouse Ig. After incubation, red cells were lysed with lysing solution, while the remaining cells were washed and analyzed by flow cytometer.
Flow cytometry: Cells were analyzed and sorted using FACStarPlus flow cytometer (Becton-Dickinson, Immunofluorometry systems, Mountain View, Calif.). Cells were passed at a rate of 1,000 cells/second through a […] nozzle, using saline as the sheath fluid. A 488 nm argon laser beam at 250 mW served as the light source for excitation. […] The PMTs was set at the appropriate voltage. Logarithmic amplification was applied for measurements of fluorescence and linear amplification—for forward light scatter. At least 10^4 cells were analyzed.
Cord blood-derived CD34 cells were plated in liquid culture in the presence of: FL—50 ng/ml, SCF—50 ng/ml, IL-6—50 ng/ml, with or without IL-3—20 ng/ml, with or without TEPA—10 μM. On day 7, the percentage of CD34 cells and the total cell number were determined. Aliquots equivalent to 1×10^3 initiating cells were assayed on days 0 and 7 for colony forming cells (CFU) by cloning in semi-solid medium. CFU expansion represents the ratio of CFU present on day 7 to CFU present on day 0.

[3] = test system: HL-60 cells; assay: Copper determination in chelator treated cells (atomic absorption); format: cell-based, human
Description: Copper Determination: Cells were harvested by centrifugation at 1000×g for 5 minutes. The cell pellet was washed three times by re-suspending the cells in PBS (Ca^++ and Mg^++ free) and centrifugation at 1000×g. An aliquot containing 2×10^6 cells was then transferred into a metal-free Eppendorf tube and the cells were recovered by centrifugation at 1000×g. The cell pellet was re-suspended in 0.03 M ultra-pure nitric acid to give a concentration of 1×10^7 cells/ml. The cells were homogenized with a high shear mixer (polytron, Kinematica, Switzerland) for 1 minutes to disrupt the cell and release intracellular copper content. Cell samples were vortexed before transferring to a vial autosampler and analyzed in duplicate by a Perkin Elmer graphite furnace atomic absorption spectrophotometer at a wavelength of 324.7 nm. The samples were analyzed against copper standard solution prepared from a commercial stock solution that was diluted with 0.03 M ultra pure nitric acid.

[4] = test system: cord blood-derived CD34^+ cells; assay: Copper-chelating peptides on proliferation and clonability in CD34 cell cultures; format: cell-based; conditions: for decrease of cell number / decrease of clonogenic potential (CFUc): peptides 10 μM, cytokines 10 ng/ml each; for decrease of cell number: after 7 weeks (FIG. 25a); for decrease of clonogenic potential (CFUc): after 7 weeks (FIG. 25b); for effect on cell differentiation: second group of Copper chelators
Description: Culture procedures: For the expansion of progenitor cells, CD34^+ enriched fractions were seeded at 1×10^4 cells/ml in alpha minimal essential medium containing 10% preselected fetal calf serum (FCS) (both from GIBCO, Grand Island, N.Y.). The medium was supplemented with a mixture of growth factors and Copper chelators. The cultures were incubated at 37° C. in an atmosphere of 5% CO2 in air with extra humidity. Half of the medium was changed weekly with fresh medium containing all the supplements.
The cloning potential of the cultured cells was assayed in semi-solid medium. The cells were washed and seeded in 35 mm dishes in methylcellulose containing alpha medium supplemented with 30% FCS and further with recombinant growth factors (stem cell factor (SCF), G-CSF, GM-CSF and erythropoietin (EPO)). Following two week incubation, the cultures were scored with an inverted microscope. Colonies were classified as blast, mixed, erythroid, myeloid, and megakaryocytic, according to their cellular composition.
The effect of Copper-chelating peptides on proliferation and clonability in CD34 cell cultures: Cultures were initiated with 10^4 cord blood-derived CD34^+ cells by plating purified cells in liquid medium in the presence of SCF, FLT3 and IL-6 (50 ng/ml each) and the Copper-binding peptides, Gly-Gly-His (GGH) or Gly-His-Lys (GHL) (10 μM each), or the late-acting cytokines G-CSF and GM-CSF (10 ng/ml each). At weekly intervals, the cultures were demi-depopulated and supplemented with fresh medium, cytokines and the peptides. After 7 weeks, cells were counted and assayed for CFUc.

[5] = test system: Murine erythroleukemia cells (MEL); assay: HMBA-induced differentiation and growth of erythroleukemic cells; format: cell-based, mouse; conditions: day 3 (Table 2)
Description: Mouse erythroleukemic cells (MEL): MEL cells are erythroblast like cells. Following treatment with several chemicals (differentiation inducers) the cells undergo erythroid differentiation and accumulate hemoglobin. […] At day 3 of the culture, the total number of cells and the percentage of hemoglobin-containing cells were determined (Table 2).
On day 3, total cell number and hemoglobin containing (benzidine positive) cells were determined.

[6] = polyamine chelating agents, weeks 3, 4, 6, 7 (FIGS. 21a-b)

Question: Which “activity on differentiation of CD34^+ cells” value [1] does the source give for `C1CNCCNCCNCCN1` [1,4,7,10-Tetraaza cyclododecane] here?
Answer: Its value is “stimulate differentiation”.

Question: How did the “cell proliferation and generation of CFUc in long-term cultures” value [1] turn out when `NCCN` [EDA, ethylenediamine] was run?
Answer: The value was “support continuous cell proliferation and long-term generation of CFUc and to delay cell differentiation”.

Question: What about the “concentrations with optimal activity” value [1, 6] of the same molecule?
Answer: Its value is 20 µM.

Question: `O=S(=O)([O-])[O-].[Cu+2]` [Copper, Copper-sulfate] was tested. Which “reversal of TEPA activities by supplemented ions” value (from here on “reversal of TEPA activities”) [2] did it give?
Answer: Its value is “reversed”.

Question: What does the source list for `C1CNCCNCCN1.Cl.Cl.Cl` [1,4,7-Triazacyclononane trihydrochioride]?
Answer: Average Intracellular Cu (% of control) ([3]; 20 μM): 32%; Average Intracellular Cu (% of control) ([3]; 100 μM): 36%

Question: What does the source list for Gly-His-Lys (GGH) [GHL]?
Answer: activity on differentiation of CD34^+ cells [1]: stimulate differentiation; decrease of cell number [4]: 25%; decrease of clonogenic potential (CFUc) [4]: 78%; effect on cell differentiation [4]: accelerate cell differentiation

Question: Gly-Gly-His (GHK) [GGH] was tested. Which “activity on differentiation of CD34^+ cells” value [1] did it give?
Answer: Its value is “stimulate differentiation”.

Question: What about the “decrease of cell number” value [4] of the same molecule?
Answer: Its value is 10%.

Question: And the “decrease of clonogenic potential (CFUc)” value [4]?
Answer: The value was 80%.

Question: What about the “effect on cell differentiation” value [4] of the same molecule?
Answer: Its value is “accelerate cell differentiation”.

Question: With iron as the molecule, how does the “reversal of TEPA activities” value [2] read?
Answer: The value was “did not”.

Question: How did the “cell proliferation and generation of CFUc in long-term cultures” value [1] turn out when `NCCNCCNCCN` [Triethylene tetramine, triethylene-tetramine] was run?
Answer: Its value is “support continuous cell proliferation and long-term generation of CFUc and to delay cell differentiation”.

Question: And the “concentrations with optimal activity” value [1, 6]?
Answer: The value was 20 µM.

Question: How did the “Average Intracellular ppb Cu” value ([3]; 100 μM, control 49 + − 18) turn out when `O=C1CC(=O)NCCNCCCNCCN1` [1,4,8,11-Tetraaza cyclotetradecane-5,7-dione] was run?
Answer: Its value is 274 ppb.

Question: With `O=S(=O)([O-])[O-].[Zn+2]` [Zinc, Zinc-sulfate] as the molecule, how does the “clonability of the cultures” value ([2]; Zinc alone (FIG. 10)) read?
Answer: The value was “expand the clonability”.

Question: And the “effect of Zinc in long term cultures” value ([1]; FIGS. 23a-b, to a smaller extent than the chelators)?
Answer: The value was “mimicked the effect of the chelating agents”.

Question: Which “effects of transition metal chelators on CD34^+ cells” value [2] does the source give for `C[C@H](CS)C(=O)N1CCC[C@H]1C(=O)O` [Captopril, captopril, reference compound] here?
Answer: The value was “share the same effects on CD34^+ cells as TEPA”.

Question: What about the “HMBA-induced differentiation of MEL cells” value [5] of the same molecule?
Answer: The value was “inhibited”.

Question: What does the source list for `CC(C)(S)[C@@H](N)C(=O)O` [Penicilamine, penicilamine, reference compound]?
Answer: effects of transition metal chelators on CD34^+ cells [2]: share the same effects on CD34^+ cells as TEPA; cell proliferation and generation of CFUc in long-term cultures [1]: sustained cell proliferation and expansion of clonogenic cells; concentrations with optimal activity ([1]; transition metal chelating agents, weeks 4, 5, 7 (FIGS. 22a-b)): 5 µM

Question: For `O=[Se]([O-])[O-].[Na+].[Na+]` [selenium, sodium selenite], which “reversal of TEPA activities” value [2] is on record?
Answer: Its value is “did not”.
